The values below come from PubChem BioAssay AID977605 (Broad Institute, 2014).

Active and inactive are the calls of the source.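 How the source made its calls: active means fitted curve reaches 40% activation below the top valid tested dose, in every test run; inconclusive means test runs disagree on the call; inactive means the rest, including effects opposite to the expected direction.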

The first experiment in a line: E-selectin inducers in HUVECs, dose response, imaging, HUVEC, cherry-picked samples (AID 977605).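 Further: signal is the share of imaged cells scored positive for E-selectin.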 As to conditions: HUVEC E-selectin immunostaining, at 16 µM (top of the series), percent of TNF-alpha response over vehicle.
Consider `C[C@H](CO)N1C[C@H](C)[C@@H](CN(C)S(=O)(=O)c2cn(C)cn2)Oc2ccc(NC(=O)CCCCCC(=O)Nc3ccccc3N)cc2C1=O`, for which the activation is -0.01% (inactive).

The same experiment, now with this note: HUVEC E-selectin immunostaining, at 18 µM (top of the series), percent of TNF-alpha response over vehicle.
In the case of `CCC(=O)N1CC[C@@H]2[C@H](CO)Nc3ccc(C#Cc4ccc(F)cc4)cc3[C@@H]21`, the activation was 27.2% (inactive).

The experiment is the same for the next values; noted with them: HUVEC E-selectin immunostaining, at 19.5 µM (top of the series).
For `Cc1ccc(OC(F)F)c(N2C(=O)C3C4CCC(O4)C3C2=O)c1` (stereo not given), the activation was -0.065% (inactive).

`CN1CCN(c2cn[nH]c(=O)c2Cl)CC1`: the activation was -0.235% (inactive).

The same experiment, now with this note: HUVEC E-selectin immunostaining, at 19.5 µM (top of the series), percent of TNF-alpha response over vehicle.
`C[C@H]1CN([C@@H](C)CO)C(=O)c2cc(NC(=O)Cn3cnnn3)ccc2O[C@@H]1CN(C)Cc1ccc(Oc2ccccc2)cc1`: the activation is -0.201% (inactive).

As to `C[C@@H]1CN([C@H](C)CO)C(=O)c2cccc(NC(=O)Nc3ccc(C(F)(F)F)cc3)c2O[C@@H]1CN(C)S(=O)(=O)c1cccs1`, the activation is -0.223% (inactive).

With `CCc1cc(C(=O)Nc2nc(-c3ccccn3)cs2)sc1C`, the activation is 0.665% (inactive).

Turning to `C[C@H](CO)N1C[C@H](C)[C@@H](CN(C)S(=O)(=O)c2cn(C)cn2)Oc2ccc(NC(=O)Nc3ccc(F)cc3)cc2CC1=O`, the activation was 0.1% (inactive).

For `Cc1ccc(S(=O)(=O)N(C)C[C@H]2Oc3ccc(N(C)C)cc3C(=O)N([C@@H](C)CO)C[C@@H]2C)cc1`, the activation is 9.64% (inactive).

For `N#Cc1cccnc1N1CCC(C(N)=O)CC1`, the activation was 0.067% (inactive).

For the molecule `C[C@@H]1CN([C@@H](C)CO)C(=O)Cc2cc(NC(=O)Nc3ccc(F)cc3)ccc2O[C@@H]1CN(C)Cc1ccc(C(=O)O)cc1`, the activation was -0.134% (inactive).

In the case of `Cc1noc(C)c1COc1ccccc1C(=O)N1CCN(S(=O)(=O)c2ccc(F)c(F)c2)CC1`, the activation was 0.069% (inactive).

`CCOC(=O)c1ccc(N(C(=O)c2ccco2)C(C(=O)NC2CCCCC2)c2ccncc2)cc1` (stereo not given): the activation is -0.129% (inactive).

In the case of `CC(C)NC(=O)N(C)C[C@H]1Oc2ccc(NC(=O)CCN3CCOCC3)cc2C(=O)N([C@@H](C)CO)C[C@H]1C`, the activation was -0.017% (inactive).

In the case of `C[C@@H]1CN([C@H](C)CO)C(=O)c2cccc(NC(=O)C3CC3)c2O[C@@H]1CN(C)Cc1ccccc1`, the activation is 0.474% (inactive).

Consider `CC(C)NC(=O)Nc1cccc2c1O[C@H](CN(C)Cc1ccc(Cl)c(Cl)c1)[C@H](C)CN([C@@H](C)CO)C2=O`, for which the activation was -0.02% (inactive).

For the molecule `C[C@H](CO)N1C[C@H](C)[C@@H](CN(C)Cc2ccc(Oc3ccccc3)cc2)Oc2ccc(NC(=O)Nc3ccc(C(F)(F)F)cc3)cc2C1=O`, the activation was 0.27% (inactive).

Turning to `CC(=O)Nc1ccc(S(=O)(=O)NNc2cccc(C)c2)cc1`, the activation was 0.281% (inactive).

For the molecule `C[C@@H]1CN([C@H](C)CO)C(=O)c2cccc(NS(=O)(=O)c3cccs3)c2O[C@H]1CN(C)Cc1ccc(Cl)c(Cl)c1`, the activation was -0.024% (inactive).

On to `COc1ccc([C@H]2CC(=O)C[C@@H](CCn3nnc4ccccc43)O2)cc1`, for which the activation was 0.021% (inactive).

For `C[C@H](CO)N1C[C@H](C)[C@@H](CN(C)C)Oc2cc(C#Cc3ccccc3F)ccc2S1(=O)=O`, the activation is 0.115% (inactive).

For `COc1ccc(NC(=O)Nc2cccc3c2O[C@@H](CN(C)C(=O)NC2CCCCC2)[C@H](C)CN([C@H](C)CO)C3=O)cc1`, the activation is 0.507% (inactive).

As for `CO[C@@H]1CN(C)C(=O)c2cc(NS(C)(=O)=O)ccc2OC[C@@H](C)N(C(=O)c2ccc3c(c2)OCO3)C[C@@H]1C`, the activation is -0.203% (inactive).

On to `C[C@@H]1CN([C@@H](C)CO)C(=O)c2cc(NC(=O)Nc3ccc(C(F)(F)F)cc3)ccc2O[C@@H]1CN(C)Cc1ccc(Oc2ccccc2)cc1`, for which the activation was -0.275% (inactive).

Regarding `COC(=O)C[C@@H]1CC[C@@H]2[C@H](COc3ccc(NC(=O)Nc4cccc(F)c4)cc3C(=O)N2C)O1`, the activation is -0.161% (inactive).

As for `CCCCNC(=O)N1CCN(c2ccccc2OCC)CC1`, the activation was 0.12% (inactive).

On to `C=C(C)CCC(C)N1CCC(n2nccc2NC(=O)CCOc2ccccc2)CC1` (stereo not given), for which the activation is -0.056% (inactive).

As for `CC(C)OC(=O)c1cccnc1N1CCN(c2cccc(Cl)c2)CC1`, the activation is 0.039% (inactive).

With `COc1ccc(C#Cc2ccc3c(c2)O[C@@H](CN(C)C(=O)Nc2cccc(OC)c2)[C@H](C)CN([C@@H](C)CO)S3(=O)=O)cc1`, the activation was 4.46% (inactive).

Turning to `COc1ccc(S(=O)(=O)Nc2ccc3c(c2)CC(=O)N([C@H](C)CO)C[C@@H](C)[C@@H](CN(C)C(=O)NC2CCCCC2)O3)cc1`, the activation was 0.114% (inactive).

`O=S(=O)(NCc1csc(-c2cccs2)n1)c1ccc(Cl)cc1`: the activation was 0.045% (inactive).

For `CCCC#Cc1ccc2c(c1)O[C@@H](CN(C)C(=O)c1ccncc1)[C@H](C)CN([C@@H](C)CO)S2(=O)=O`, the activation is -0.24% (inactive).

For `CCNC(=O)C[C@@H]1CC[C@H]2[C@@H](COc3ccc(NC(=O)Nc4ccc(F)cc4)cc3C(=O)N2C)O1`, the activation was -0.137% (inactive).

On to `CCOC(=O)c1cccc(NC(=O)Nc2ccc3c(c2)C(=O)OC3)c1`, for which the activation was 0.013% (inactive).

On to `C[C@H]1CN([C@@H](C)CO)C(=O)Cc2cc(NC(=O)c3ccncc3)ccc2O[C@H]1CN(C)Cc1ccc(C(=O)Nc2ccccc2N)cc1`, for which the activation is 6.93% (inactive).

`O=C(Nc1cc(C(F)(F)F)cc(C(F)(F)F)c1)Nc1cnn(-c2ccc([N+](=O)[O-])cc2)c1C(F)(F)F`: the activation was 0.091% (inactive).

Turning to `N#Cc1ccc(-c2csc(NC3=NCCCCC3)n2)cc1`, the activation is -0.002% (inactive).

Consider `COc1ncnc(OC)c1S(=O)(=O)NCc1ccccc1`, for which the activation was -0.033% (inactive).

As for `CC(C)C(c1nnnn1C1CCCCC1)N1CCN(C(=O)c2ccco2)CC1` (stereo not given), the activation is -0.112% (inactive).

As for `Brc1cnc2nc(SCc3nc4ccccc4[nH]3)[nH]c2c1`, the activation is 1.19% (inactive).

For the molecule `COc1ccc(CN(C)C[C@@H]2Oc3ccc(NC(=O)c4ccncc4)cc3C(=O)N([C@@H](C)CO)C[C@H]2C)cc1`, the activation is 19.2% (inactive).

As for `Cc1ccc(O)c([C@H](CCN(C(C)C)C(C)C)c2ccccc2)c1`, the activation is -0.269% (inactive).

As for `COc1ccc(S(=O)(=O)Nc2ccc3c(c2)C(=O)N([C@H](C)CO)C[C@H](C)[C@@H](CN(C)C(=O)Nc2cccc4ccccc24)O3)cc1`, the activation is 0.023% (inactive).

On to `COc1ccc(S(=O)(=O)N(C)C[C@@H]2Oc3ccc(NC(=O)c4ccncc4)cc3C(=O)N([C@H](C)CO)C[C@H]2C)cc1`, for which the activation is -0.082% (inactive).

For `Cc1ccccc1CN1CCN(S(=O)(=O)c2ccc(Cl)s2)CC1`, the activation is 0.152% (inactive).

Regarding `Nc1nnc(SCc2nnc(-c3ccccc3)o2)s1`, the activation was 0.69% (inactive).

In the case of `Oc1cccc(Oc2ncc(C(F)(F)F)cc2Cl)c1`, the activation was -0.09% (inactive).

In the case of `C[C@@H]1CN([C@@H](C)CO)C(=O)Cc2cc(NC(=O)C3CC3)ccc2O[C@@H]1CN(C)Cc1ccc2c(c1)OCO2`, the activation was -0.129% (inactive).

For the molecule `CC1CCN(c2nc3c(=O)[nH]c(N)nc3n2[C@@H]2O[C@H](CO)[C@@H](O)[C@H]2O)CC1`, the activation is 0.131% (inactive).

In the case of `CCNC(=O)CC1C(=O)N(c2ccc(OC)cc2)C(=O)N1CCOC` (stereo not given), the activation is -0.131% (inactive).

In the case of `C[C@@H]1CN([C@H](C)CO)C(=O)c2cc(Br)cnc2O[C@@H]1CN(C)C(=O)C1CC1`, the activation was -0.087% (inactive).

For the molecule `C[C@H]1CN([C@@H](C)CO)C(=O)Cc2cc(NC(=O)C3CCCCC3)ccc2O[C@H]1CN(C)C(=O)NC1CCCCC1`, the activation was -0.185% (inactive).

Consider `C[C@H](CO)N1C[C@H](C)[C@H](CN(C)Cc2ccc(C(F)(F)F)cc2)Oc2ccc(NS(=O)(=O)c3cn(C)cn3)cc2CC1=O`, for which the activation is -0.066% (inactive).

For `COc1ccc(Nc2n[nH]c(N)c2C(N)=O)cc1`, the activation was -0.163% (inactive).

Regarding `c1ccc(-c2ccccc2OCCOCCN2CCNCC2)cc1`, the activation is 0.084% (inactive).

For the molecule `Cc1noc(C)c1COc1ccc(C(=O)N2CCC(C)CC2)cc1`, the activation was 8.94% (inactive).

With `CCCC#Cc1ccc2c(c1)O[C@@H](CN(C)S(=O)(=O)c1cccc(OC)c1)[C@@H](C)CN([C@@H](C)CO)S2(=O)=O`, the activation is 0.13% (inactive).

The experiment is the same for the next values; noted with them: HUVEC E-selectin immunostaining, at 21 µM (top of the series), percent of TNF-alpha response over vehicle.
Regarding `COc1ccc(S(=O)(=O)Nc2ccc3c(c2)CC(=O)N([C@@H](C)CO)C[C@H](C)[C@@H](CN(C)C(=O)NC2CCCCC2)O3)cc1`, the activation is 0.142% (inactive).

As to `C[C@H]1CN([C@@H](C)CO)C(=O)c2cc(NC(=O)Nc3ccccc3)ccc2O[C@@H]1CN(C)C(=O)Nc1ccc(C(F)(F)F)cc1`, the activation is 0.08% (inactive).

Regarding `C[C@H]1CN([C@@H](C)CO)C(=O)c2cc(NC(=O)Nc3ccc(F)cc3)ccc2O[C@H]1CN(C)S(=O)(=O)c1cccs1`, the activation is 2.05% (inactive).

In the case of `COc1ccc(NC(=O)Nc2ccc3c(c2)C(=O)N([C@@H](C)CO)C[C@@H](C)[C@@H](CN(C)S(=O)(=O)c2ccc(F)cc2)O3)cc1`, the activation was 0.213% (inactive).

In the case of `C[C@H](CO)N1C[C@H](C)[C@H](CN(C)Cc2ccncc2)Oc2ccc(NS(C)(=O)=O)cc2CC1=O`, the activation is 0.077% (inactive).

As to `C[C@H](CO)N1C[C@H](C)[C@H](CN(C)S(=O)(=O)c2ccc(Cl)cc2)Oc2ccc(NS(=O)(=O)c3ccc(F)cc3)cc2CC1=O`, the activation was -0.115% (inactive).

Turning to `CCNC(=O)C[C@@H]1CC[C@@H]2[C@@H](COc3ccc(NC(=O)Nc4cccc(OC)c4)cc3C(=O)N2C)O1`, the activation is 0.153% (inactive).

Take `COc1ccc(S(=O)(=O)N(C)C[C@H]2Oc3ccc(NC(=O)Nc4c(C)noc4C)cc3C(=O)N([C@@H](C)CO)C[C@@H]2C)cc1`: the activation is 2.96% (inactive).
